We go through one compound from patent publication US20160243136A1, “PHARMACEUTICAL FORMULATIONS CONTAINING MITOCHONDRIALLY TARGETED ANTIOXIDANTS” (Mitotech SA, priority 2013, published 2016).

This assay deals with rat model of APN. Kind of assay: In vivo rat model of acute pyelonephritis (APN), bacteria introduced in the bladder. The settings on record: 7th day. The procedure: An in vivo experimental model of APN was used where bacteria are introduced in the bladder of rat (Gupta et al. (1995) J. Med. Microbiol. 43:33-36). Experiments were performed on outbred white female rats (180-200 g) fed ad libitum. Animal protocols were approved by the Institutional Review Boards. Rats were anesthetized with chloral hydrate (300 mg/kg, intraperitoneally(ip)). The animals were infected intraurethrally using a soft Intramedic non-radio-opaque polyethylene catheter (Clay Adams, USA). The inoculum (5 ml per kg, 1×10^8 CFU/ml of rat fecal bacterial composition) was injected slowly to avoid any leakage […]. Control animals were untreated. The therapeutic protocol of SkQR1 used to treat this pathology was as follows: […], with subsequent injections of the same amount of SkQR1 at 12, 24, 36 and 48 hrs; in total, each animal received 500 nmol SkQR1 per kg. […]
Kidney mitochondria were isolated by homogenization and differential centrifugation in a medium containing 250 mM sucrose, 20 mM HEPES-KOH, 1 mM EGTA and 0.1% BSA, pH7.4. Total mitochondrial protein was determined using a bicinchoninic acid protein assay kit (Sigma-Aldrich, USA). The mitochondria from cultured kidney cells were isolated by the same protocol.
The ROS-sensitive fluorescent probe 2,7-DCF-DA (Molecular Probes, USA) dissolved in DMEM/F12 without bicarbonate (final concentration 10 μM) was added to renal cells (500 μl per well of 24-well plate, 2 ml per dish) and incubated for 15 min at 37° C. followed by a wash with DMEM/F12 without bicarbonate. MDA was determined as in (Mihara and Uchiyama (1978) Anal. Biochem. 86:271-8). Fluorescent probe, DAF-2-DA (Calbiochem, San Diego, Calif., USA) was used for NO determination in living cells. The procedure was the same as for 2,7-DCF-DA. The nitrite/nitrate concentration (as products of NO oxidation) in culture media was determined using Nitrite/Nitrate Assay Kit (Sigma-Aldrich, USA). TNFα was determined using the kit Rat TNFα ELISA Ready-SET-Go (Ebioscience, USA).
The kidney was isolated immediately after sacrificing the animal and perfused with ice-cold PBS. It was then fixed in a 10% neutral buffered formalin solution, embedded in paraffin and used for histopathological examination. Five micrometer thick sections were cut, deparaffinized, hydrated, and stained with hematoxylin and eosin. The renal sections were examined in blinded fashion for inflammation and infiltration by leukocytes in the kidneys of all treated animals. A minimum of 10 fields for each kidney slide were examined and scored for pathologic severity.
The manifestation of inflammatory indicators (i.e., a number of infiltrated leukocytes in every layer and the presence of abscesses) under APN was evaluated using the following scale: 0, none; 1, 5-50 leukocytes in the view field; […]; 4, abscesses with pus-necrotic content. The distribution of inflammatory changes (i.e., comparative analysis of infiltration and abscesses) was evaluated by the following criteria: 0, none in any layer; 1, infiltration in the medullar layer; 2, infiltration reaching the cortex.
Kidney homogenates for MPO determination were centrifuged at 20000 g 15 min, the pellets were resuspended in 50 mM K-phosphate buffer containing 0.5% CTAB. Resulted samples were frozen and thawed three times and then centrifuged at 10600 g 10 min. Supernatants were analyzed for MPO activity in chromogenic reaction with o-phenylenediamine (OPD). 100 μl sample was mixed with 100 μl substrate buffer (25 mM Na-citrate, 50 mM Na-phosphate, 0.45 mg/ml OPD, 0.1% H2O2, pH 5.0) and was incubated 15 min at room temperature and then OD was detected at 492 nm.
Samples of kidney homogenates were loaded onto 15% Tris-glycine polyacrylamide gels (10-20 μg of total protein per lane). After electrophoresis, gels were blotted onto PVDF membranes (Amersham Pharmacia Biotech, UK). […]

Consider `CC1=C(C)C(=O)C(CCCCCCCCCC[P+](c2ccccc2)(c2ccccc2)c2ccccc2)=CC1=O` [SkQ1, 10-(6-plastoquinonyl)decyl-triphenylphosphonium], for which the “leukocyte concentration in blood” value (SkQ1 100 nmol/kg ip on 3rd day) is reported as “significantly reduced”. In addition, the “neutrophils concentration in blood” value (SkQ1 100 nmol/kg ip on 3rd day after induction, vs animals not receiving SkQ1) is given as “twice as low”. Under “SkQ1 ip on third day after induction”, the “MPO activity in renal tissue (inflammation of kidney tissue)” value is “significant suppression”.
